Measurements from patent US20260199323A1, “LIGAND COMPOUNDS FOR E3 UBIQUITIN LIGASE, PROTEIN DEGRADERS DEVELOPED ON BASIS OF LIGAND COMPOUNDS, AND USES THEREOF” (GLUETACS THERAPEUTICS (SHANGHAI) CO., LTD., priority 2021, published 2026).
Read-outs that look alike come from different tables or passages of the source. Blank lines part the entries; values can stand above or below the compound they belong to.

What was measured:
MDA-MB-231 = assay: CCK-8 tumor cell proliferation, MDA-MB-231; type: cell-based, Human; set-up: IC50 for inhibiting the proliferation of tumor cells, MDA-MB-231: scale not given here; details: Table 7, designed based on BTK inhibitors, 96 h
Method in brief: (§1)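 Cell viability (CCK-8) after compound exposure; IC50 calculated. Cells seeded, treated after 24 h, maximum dose 10 μM, 5-fold serial dilutions over 10 concentrations.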

MM.1S = assay: CCK-8 tumor cell proliferation, MM.1S; type: cell-based; details: for IC50: Homo sapiens, MM1.S
Method in brief: as §1

22RV1 = assay: CCK-8 tumor cell proliferation, 22RV1; set-up: species or system Human; details: Table 7, designed based on BTK inhibitors, 96 h
Method: (§2) The tumor cells used herein were cultured in a cell culture medium listed in table 4 at 37° C. in an incubator with 5% CO2. Prior to experimentation, all cells used were correctly identified by STR profiling, and tested negative for mycoplasma through routine screenings.
(§3) IC50 values of the compounds of the present disclosure (including the compounds in Tables 1 and 3, and compounds of examples) were measured using the Meilun Cell Counting Kit-8 kit from Dalian Meilun Biotech Co., Ltd. Assay details are as follows: tumor cells were seeded in a 96-well plate at a density listed in Table 5. After 24 h, 100 μL of the inoculated cells were treated with 0.5 μL of the compounds of the present disclosure (including the compounds in Tables 1 and 3, and compounds of examples) at 10 different successively decreasing concentrations (starting at the highest concentration of 10 μM; 5-fold serial dilutions). After the cells were treated with the compounds of the present disclosure for a period of time, the cell viability detection reagent was added to the culture medium for cell viability assessment according to the instructions provided with the CCK-8 kit. […] The growth inhibition of the compounds of the present disclosure on cells was plotted by Prism Graphpad software, and the IC50 values of the compounds of the present disclosure were calculated therefrom.

Mino = assay: CCK-8 tumor cell proliferation, Mino; type: cell-based, Human; details: Table 7, designed based on BTK inhibitors; 72 h
Method in brief: as §1

MV-4-11 = assay: CCK-8 tumor cell proliferation, MV-4-11; type: cell-based, Human; details: Table 7, designed based on BTK inhibitors; 72 h
Method in brief: as §1

NCI-H1975 = assay: CCK-8 tumor cell proliferation, NCI-H1975; type: cell-based, Human; details: Table 7, designed based on BTK inhibitors; 96 h
Method in brief: as §1

JEKO-1 = assay: CCK-8 tumor cell proliferation, JEKO-1; set-up: species or system Human; details: Table 7, designed based on BTK inhibitors; 96 h
Method: as §2, §3

Vcap = assay: CCK-8 tumor cell proliferation, Vcap; type: cell-based, Human; details: Homo sapiens, VCaP
Method in brief: as §1

SW620 = assay: CCK-8 tumor cell proliferation, SW620; type: cell-based, Human; details: Homo sapiens, SW-620; Table 18, FAK inhibitor based; SW620; read-out: IC50 inhibiting proliferation of tumor cells, SW620
Method in brief: as §1

CAL-62 = assay: CCK-8 tumor cell proliferation, CAL-62; type: cell-based, Human; details: Homo sapiens; Table 18, FAK inhibitor based; CAL-62; read-out: IC50 inhibiting proliferation of tumor cells, CAL-62
Method in brief: as §1

MGC-803 = assay: CCK-8 tumor cell proliferation, MGC-803; details: Homo sapiens, Table 18, FAK inhibitor based, MGC803, read-out: IC50 inhibiting proliferation of tumor cells, MGC803
Method: as §2, §3

CCRF-CEM = assay: CCK-8 tumor cell proliferation, CCRF-CEM; type: cell-based, Human; details: Homo sapiens, CCRF-CEM
Method in brief: as §1

Hep3B2.7-1 = assay: CCK-8 tumor cell proliferation, Hep3B2.7-1; type: cell-based, Human; details: Homo sapiens; Table 18, FAK inhibitor based; HEP3B2.7-1; read-out: IC50 inhibiting proliferation of tumor cells, HEP3B2.7-1
Method in brief: as §1

THP-1 = assay: CCK-8 tumor cell proliferation, THP-1; type: cell-based, Human; details: Homo sapiens, THP-1; Table 7, designed based on BTK inhibitors; 72 h; read-out: IC50 for inhibiting the proliferation of tumor cells, THP-1
Method: as §2, §3

[1] = Table 7, designed based on BTK inhibitors, 72 h
[2] = Table 18, FAK inhibitor based, Vcap, read-out: IC50 inhibiting proliferation of tumor cells, Vcap
[3] = Table 18, FAK inhibitor based, read-out: IC50 inhibiting proliferation of tumor cells, CCRF-CEM
[4] = Table 18, FAK inhibitor based, MM.1S, read-out: IC50 inhibiting proliferation of tumor cells, MM.1S

IC50 (Vcap; [2]): < 50 nM
IC50 (SW620): < 50 nM
IC50 (CAL-62): < 50 nM
IC50 (MGC-803): < 50 nM
SMILES: CNC(=O)c1ccccc1Nc1cc(Nc2cc(C)c(N3CCN(Cc4cc5c(cc4F)C(=O)N(C4CCC(=O)NC4=O)C5)CC3)cc2OC(C)C)ncc1C(F)(F)F (stereo not drawn) [GT-03942, 2-((2-((4-(4-((2-(2,6-dioxopiperidin-3-yl)-6-fluoro-1-oxoisoindolin-5-yl)methyl)piperazin-1-yl)-2-isopropoxy-5-methylphenyl)amino)-5-(trifluoromethyl)pyridin-4-yl)amino)-N-methylbenzamide]

IC50 (CCRF-CEM; [3]): < 50 nM
IC50 (Hep3B2.7-1): < 50 nM
IC50 (MM.1S; [4]): < 50 nM
IC50 (Vcap; [2]): < 50 nM
IC50 (SW620): < 50 nM
IC50 (CAL-62): < 50 nM
IC50 (MGC-803): 50 to 100 nM
SMILES: CNC(=O)c1ccccc1Nc1cc(Nc2cc(C)c(C3CCN(Cc4cc5c(cc4F)C(=O)N(C4CCC(=O)NC4=O)C5)CC3)cc2OC(C)C)ncc1C(F)(F)F (stereo not drawn) [GT-04080, 2-((2-((4-(1-((2-(2,6-dioxopiperidin-3-yl)-6-fluoro-1-oxoisoindolin-5-yl)methyl)piperidin-4-yl)-2-isopropoxy-5-methylphenyl)amino)-5-(trifluoromethyl)pyridin-4-yl)amino)-N-methylbenzamide]

IC50 (CAL-62): 50 to 100 nM
IC50 (MGC-803): < 50 nM
SMILES: CNC(=O)c1ccccc1Nc1cc(Nc2cc(C)c(N3CCC(N(C)Cc4ccc5c(c4)CN(C4CCC(=O)NC4=O)C5=O)CC3)cc2OC(C)C)ncc1C(F)(F)F (stereo not drawn) [GT-04090, 2-((2-((4-(4-(((2-(2,6-dioxopiperidin-3-yl)-1-oxoisoindolin-5-yl)methyl)(methyl)amino)piperidin-1-yl)-2-isopropoxy-5-methylphenyl)amino)-5-(trifluoromethyl)pyridin-4-yl)amino)-N-methylbenzamide]

IC50 (CAL-62): < 50 nM
IC50 (MGC-803): 50 to 100 nM
SMILES: CNC(=O)c1ccccc1Nc1cc(Nc2cc(C)c(N3CCC(N(C)Cc4ccc5c(c4F)CN(C4CCC(=O)NC4=O)C5=O)CC3)cc2OC(C)C)ncc1C(F)(F)F (stereo not drawn) [GT-04091, 2-((2-((4-(4-(((2-(2,6-dioxopiperidin-3-yl)-4-fluoro-1-oxoisoindolin-5-yl)methyl)(methyl)amino)piperidin-1-yl)-2-isopropoxy-5-methylphenyl)amino)-5-(trifluoromethyl)pyridin-4-yl)amino)-N-methylbenzamide]

IC50 (CAL-62): 100 to 500 nM
IC50 (MGC-803): < 50 nM
SMILES: CNC(=O)c1ccccc1Nc1cc(Nc2cc(C)c(N3CCC(N(C)Cc4cc5c(cc4F)C(=O)N(C4CCC(=O)NC4=O)C5)CC3)cc2OC(C)C)ncc1C(F)(F)F (stereo not drawn) [GT-04092, 2-((2-((4-(4-(((2-(2,6-dioxopiperidin-3-yl)-6-fluoro-1-oxoisoindolin-5-yl)methyl)(methyl)amino)piperidin-1-yl)-2-isopropoxy-5-methylphenyl)amino)-5-(trifluoromethyl)pyridin-4-yl)amino)-N-methylbenzamide]

IC50 (CAL-62): 50 to 100 nM
IC50 (MGC-803): < 50 nM
SMILES: CNC(=O)c1ccccc1Nc1cc(Nc2cc(C)c(N3CCC(N(C)Cc4cc(F)c5c(c4)CN(C4CCC(=O)NC4=O)C5=O)CC3)cc2OC(C)C)ncc1C(F)(F)F (stereo not drawn) [GT-04093, 2-((2-((4-(4-(((2-(2,6-dioxopiperidin-3-yl)-7-fluoro-1-oxoisoindolin-5-yl)methyl)(methyl)amino)piperidin-1-yl)-2-isopropoxy-5-methylphenyl)amino)-5-(trifluoromethyl)pyridin-4-yl)amino)-N-methylbenzamide]

Second part, the compound before the results:

SMILES: Nc1ncnc2c1c(-c1ccc(Oc3ccccc3)cc1)nn2C1CCN(Cc2ccc3c(c2)CN(C2CCC(=O)NC2=O)C3=O)CC1F (stereo not drawn) [GT-02652, 3-(5-((4-(4-amino-3-(4-phenoxyphenyl)-1H-pyrazolo[3,4-d]pyrimidin-1-yl)-3-fluoropiperidin-1-yl)methyl)-1-oxoisoindolin-2-yl)piperidine-2,6-dione]
IC50 for inhibiting the proliferation of tumor cells, MDA-MB-231 (MDA-MB-231): A+
IC50 for inhibiting the proliferation of tumor cells, MM.1S (MM.1S; [1]): A+
IC50 for inhibiting the proliferation of tumor cells, 22RV1 (22RV1): A+
IC50 for inhibiting the proliferation of tumor cells, Mino (Mino): A+
IC50 for inhibiting the proliferation of tumor cells, MV-4-11 (MV-4-11): A+

SMILES: Nc1ncnc2c1c(-c1ccc(Oc3ccccc3)cc1)nn2[C@H]1CCN(Cc2ccc3c(c2)CN(C2CCC(=O)NC2=O)C3=O)C[C@@H]1F (stereo partly drawn) [GT-03264, 3-(5-(((3S,4S)-4-(4-amino-3-(4-phenoxyphenyl)-1H-pyrazolo[3,4-d]pyrimidin-1-yl)-3-fluoropiperidin-1-yl)methyl)-1-oxoisoindolin-2-yl)piperidine-2,6-dione]
IC50 for inhibiting the proliferation of tumor cells, MDA-MB-231 (MDA-MB-231): A+
IC50 for inhibiting the proliferation of tumor cells, MM.1S (MM.1S; [1]): A+
IC50 for inhibiting the proliferation of tumor cells, 22RV1 (22RV1): A+
IC50 for inhibiting the proliferation of tumor cells, NCI-H1975 (NCI-H1975): A+
IC50 for inhibiting the proliferation of tumor cells, JEKO-1 (JEKO-1): A+
IC50 for inhibiting the proliferation of tumor cells, Mino (Mino): A+

SMILES: Nc1ncnc2c1c(-c1ccc(Oc3ccccc3)cc1)nn2[C@@H]1CCN(Cc2ccc3c(c2)CN(C2CCC(=O)NC2=O)C3=O)C[C@H]1F (stereo partly drawn) [GT-03287, 3-(5-(((3R,4R)-4-(4-amino-3-(4-phenoxyphenyl)-1H-pyrazolo[3,4-d]pyrimidin-1-yl)-3-fluoropiperidin-1-yl)methyl)-1-oxoisoindolin-2-yl)piperidine-2,6-dione]
IC50 for inhibiting the proliferation of tumor cells, MDA-MB-231 (MDA-MB-231): A+
IC50 for inhibiting the proliferation of tumor cells, MM.1S (MM.1S; [1]): A+
IC50 for inhibiting the proliferation of tumor cells, 22RV1 (22RV1): A+
IC50 for inhibiting the proliferation of tumor cells, JEKO-1 (JEKO-1): A+
IC50 for inhibiting the proliferation of tumor cells, Mino (Mino): A+

SMILES: CNC(=O)c1ccccc1Nc1cc(Nc2cc(C)c(C3CCN(Cc4ccc5c(c4F)CN(C4CCC(=O)NC4=O)C5=O)CC3)cc2OC(C)C)ncc1C(F)(F)F (stereo not drawn) [GT-04079, 2-((2-((4-(1-((2-(2,6-dioxopiperidin-3-yl)-4-fluoro-1-oxoisoindolin-5-yl)methyl)piperidin-4-yl)-2-isopropoxy-5-methylphenyl)amino)-5-(trifluoromethyl)pyridin-4-yl)amino)-N-methylbenzamide]
IC50 (CCRF-CEM; [3]): < 50 nM
IC50 (Hep3B2.7-1): < 50 nM
IC50 (MM.1S; [4]): < 50 nM
IC50 (Vcap; [2]): < 50 nM
IC50 (SW620): < 50 nM
IC50 (CAL-62): < 50 nM
IC50 (MGC-803): 100 to 500 nM

SMILES: C=CC(=O)N1CCC[C@@H](n2nc(-c3ccc(Oc4ccccc4)cc3)c3c(N)ncnc32)C1 [ibrutinib, Ibrutinib, reference compound]
IC50 (CCRF-CEM; Table 7, designed based on BTK inhibitors, 96 h, read-out: IC50 for inhibiting the proliferation of tumor cells, CCRF-CEM): > 10000 nM
IC50 (MDA-MB-231; Homo sapiens, MDA-MB-231, read-out: IC50 for inhibiting the proliferation of tumor cells, MDA-MB-231): > 10000 nM
IC50 (MM.1S; Table 7, designed based on BTK inhibitors, 72 h, read-out: IC50 for inhibiting the proliferation of tumor cells, MM.1S): > 10000 nM
IC50 (22RV1; Homo sapiens, 22Rv1, read-out: IC50 for inhibiting the proliferation of tumor cells, 22RV1): > 10000 nM
IC50 (THP-1): > 10000 nM
IC50 (Vcap; 96 h, Table 7, designed based on BTK inhibitors, 96 h, read-out: IC50 for inhibiting the proliferation of tumor cells, Vcap): > 10000 nM
